“Also recorded” adds a separate entry of the source.
Columns and labels:
[1] = test system: PC3 prostate cancer cell line; experiment: Cell viability assay, PC3; format: cell-based, human; conditions: 72 h, vital dye exclusion and flow cytometry; read-out: Mean IC50 (+/- SEM) in cell viability assay, PC3 prostate
Procedure: (§1) Flow cytometry: Much of the biological activity presented is shown through flow cytometry data. […] Here, IC50 flow cytometry assays were used. […] To measure nutrient receptor expression following exposure to FTY720 and azacyclic constrained analogs of FTY720, surface 4F2hc expression was measured after 3 hours of drug treatment by staining 150,000 cells with phycoerythrin-conjugated mouse anti-human CD98 (by BD Biosciences™). Analysis was restricted to viable cells. All samples for the disclosed sets of data were analyzed on a BD LSR II flow cytometer and data analyzed with FlowJo™ software (by Treestar™). IC50's were calculated and statistical tests were performed using GraphPad Prism™.

[2] = test system: Sup-B15 BCR-ABL positive human acute lymphoblastic leukemia (ALL) cell line; experiment: Cell viability assay, Sup-B15 leukemia cells (flow cytometry, vital dye exclusion); format: cell-based; conditions: for cell death in combination with dasatinib: 72 h
Source text: (§2) Leukemia cell assays: Effects of chemical changes on ability to kill cells as observed in cell viability assays using the BCR-ABL positive human acute lymphoblastic leukemia (ALL) cell line, Sup-B15 are described. Assays using the Sup-B15 cell line were designed to determine efficacy of azacyclic constrained small molecule analogs of FTY720 in killing leukemia cells. Analogs were generated using the synthesis methods mentioned above. Sup-B15 cells were maintained at 2-3 million/mL in RPMI 1640 (by Mediatech™) supplemented with 10% fetal calf serum (by Sigma-Aldrich™), 10 mM Hepes (by Mediatech™), 55 μM β-mercaptoethanol (by Sigma-Aldrich™), 2 mM L-glutamine (by Mediatech™), and antibiotics. BV173, Nalm-6, and Blin-1 were maintained at 1-2 million/mL and CCRF-CEM at less than 500,000/mL in the same medium. BMp190 cells were created by transducing murine bone marrow cells with pMIC-p190 which expresses the p190 isoform of BCR-Abl and human CD4 from an IRES; these cells were kept at 1-2 million/mL in RPMI supplemented as above.
(§3) Flow cytometry: Much of the biological activity presented is shown through flow cytometry data. […] Here, IC50 flow cytometry assays were used. In them, viability was determined at 72 hours by vital dye exclusion [propium iodide or DAPI (4′,6-diamindino-2-phenylindole)]. To measure nutrient receptor expression following exposure to FTY720 and azacyclic constrained analogs of FTY720, surface 4F2hc expression was measured after 3 hours of drug treatment by staining 150,000 cells with phycoerythrin-conjugated mouse anti-human CD98 (by BD Biosciences™). Analysis was restricted to viable cells.
(§4) All samples for the disclosed sets of data were analyzed on a BD LSR II flow cytometer and data analyzed with FlowJo™ software (by Treestar™). IC50's were calculated and statistical tests were performed using GraphPad Prism™.

[3] = test system: Blin-1 Ph- ALL cell line; experiment: Cell viability assay, Blin-1; format: cell-based, human; conditions: 72 h, vital dye exclusion and flow cytometry; read-out: Mean IC50 (+/- SEM) in cell viability assay, Blin-1 Ph- ALL
Source text: as §2, §3, §4

[4] = test system: BCR-Abl+ leukemias compared to other cell types; experiment: Ratio of IC50 of compound 6 (177) and its enantiomer compound 5 (39) across cell types; format: cell-based
Source text: Another difference between compound 6 and FTY720 or the enantiomer of compound 6, is that compound 6 has a specific and very high activity to BCR-Abl+ leukemias compared to other cell types. This trend is shown in FIG. 10d by calculating the ratio of 1050 for compound 6 (also called 177) and its enantiomer compound 5 (also called 39). If the drugs are similarly effective a ratio near 1 would be expected, and if compound 6 works better (has a lower 1050), a ratio greater than one as with SupB15s would be expected. […] Finally, it is seen that the Ph+ALL primary patient sample has a ratio greater than 1.

[5] = test system: BCR-Abl+ SFO2 cells; experiment: Combination with trametinib in BCR-Abl+ SFO2 patient-derived leukemia cells; format: cell-based, human; conditions: cytostatic concentration of trametinib + cytostatic concentration of compound 6
Source text: FIGS. 10n and 10o provide data results from a study of the effectiveness of treating BCR-Abl+ SFO2 cells (10n), and also in BCR-Abl− LAX7R cells (10o), which is a late-stage leukemia resistant to chemotherapy.

[6] = test system: DU145 prostate cancer cell line; experiment: Cell viability assay, DU145; format: cell-based, human; conditions: 72 h, vital dye exclusion and flow cytometry; read-out: Mean IC50 (+/- SEM) in cell viability assay, DU145 prostate
Procedure: as §1

[7] = test system: human colon cancer cells; experiment: Combination with trametinib in human colon cancer cells; format: cell-based
[8] = test system: circulating lymphocytes; experiment: Lymphocyte sequestration (circulating lymphocytes); format: in vivo, mouse; conditions: number of circulating lymphocytes 12 h after dosage
Source text: (§5) As previously discussed, FTY720 itself cannot be used in cancer patients because phosphorylation of FTY720 by SphKs makes FTY720-P, which acts at S1P receptors to cause bradycardia and immunosuppression (on-target effect for primary use).

[9] = Mouse heart rate by telemetry; format: in vivo; conditions: telemetry for 24 h after administration of anti-cancer dose
Source text: as §5

SMILES: CCCCCCCCc1ccc(CO[C@@H]2CN[C@@H](CO)C2)cc1.Cl [Compound 6]
- IC50 [1]: 13.5 ± 2.6 µM
- cell killing at 72 h ([2]; 1 μM (=0.5×IC50), alone): does not kill
- cell death in combination with dasatinib ([2]; 1 μM compound 6 + dasatinib 200 nM): increases cell death
- cell viability at 72 h ([2]; 2 μM (1×IC50), alone): significantly reduces cell viability
- cell death in combination with dasatinib ([2]; 2 μM compound 6 + dasatinib): increases cell death beyond that caused by compound 6 alone
- IC50 ([2]; BCR-Abl+ SupB15 leukemia cell line, read-out: IC50): 2 µM
- ability to kill leukemia cells, potency compared in words ([2]; Sup-B15 cell viability assays): activity much greater than compounds 5, 7, and 8; also recorded: enhanced anticancer activity relative to its diasteromeric congeners and to FTY720
- killing compared with dasatinib ([2]; both drugs at their maximally active dose): kills better than dasatinib
- IC50 [3]: 6.9 ± 0.3 µM
- ratio of IC50, compound 6 versus its enantiomer compound 5 ([4]; 2 Ph+ ALL lines and BM transduced with BCR-ABL p190 fusion): greater than 1
- ratio of IC50, compound 6 versus its enantiomer compound 5 ([4]; 3 Ph- ALL lines): ~1
- sensitivity of non-sensitive line after p190 transduction ([4]; CCRF transduced with p190): becomes sensitized to compound 6
- ratio of IC50, compound 6 versus its enantiomer compound 5 ([4]; Ph+ALL primary patient sample): greater than 1
- cell killing, combination with trametinib [5]: kills patient-derived leukemia cells without killing the irradiated stromal cell layer
- IC50 [6]: 15.1 ± 1 µM
- cell killing, combination of trametinib and compound 6 [7]: can kill human colon cancer cells
- cell killing, single agent [7]: do not die
- lymphocyte sequestration / immunosuppression [8]: does not cause immunosuppression
- effect on heart rate [9]: nor does it decrease heart rate

From patent publication US10077236B2, “Azacyclic constrained analogs of FTY720” (The Regents of the University of California, priority 2013, dated 2018)
